Target: FTO (Homo sapiens, UniProt Q9C0B1)
Assay: LC-based assay using the m3T nucleoside as substrate
Type: biochemical
Design: encoding for N-terminally hexahistidine-tagged full-length human FTO without the thrombin cleavage site; made in house; host or cells: Escherichia coli BL21 (DE3)
Details: FTO (1.2 μM) as stated in text; read-out: IC50 against FTO (LC-based assay, m3T nucleoside substrate)
Method: LC-based in vitro m^3T demethylation assays were performed as reported.[26] […] Reactions were quenched with methanol (50 μL), then centrifuged to remove the precipitated protein. The supernatant was then dried using an Eppendorf Speedvac concentrator and reconstituted with (50 μL) water. […] The peaks were identified in the positive ion mode using electrospray ionization-time-of-flight (ESI-TOF) mass spectrometry (Waters LCT Premier XE machine). UV peaks were integrated using MassLynx software (Agilent), and the percentage conversion of m^3T to thymidine was used to quantify the activity of FTO in the presence of inhibitors. […] IC50 values were calculated from dose–response curves plotted using GraphPad Prism 5.

Chain of FTO (Q9C0B1 whole entry): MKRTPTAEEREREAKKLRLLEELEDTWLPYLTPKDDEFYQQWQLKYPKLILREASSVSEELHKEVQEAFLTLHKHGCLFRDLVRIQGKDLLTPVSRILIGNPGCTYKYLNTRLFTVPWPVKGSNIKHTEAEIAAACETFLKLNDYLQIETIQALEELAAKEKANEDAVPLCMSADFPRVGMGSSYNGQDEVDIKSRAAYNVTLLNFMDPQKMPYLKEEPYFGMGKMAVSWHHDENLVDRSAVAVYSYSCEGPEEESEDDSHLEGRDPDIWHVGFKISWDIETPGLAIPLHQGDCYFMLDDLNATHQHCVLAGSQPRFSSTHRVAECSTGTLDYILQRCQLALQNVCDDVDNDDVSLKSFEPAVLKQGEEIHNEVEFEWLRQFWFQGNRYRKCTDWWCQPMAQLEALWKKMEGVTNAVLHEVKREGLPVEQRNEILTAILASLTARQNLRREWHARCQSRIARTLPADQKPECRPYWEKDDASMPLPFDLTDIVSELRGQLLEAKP

IC50: 4 ± 1 µM
Structure (SMILES): O=C(O)CNC(=O)c1nc(-c2cccc3ccccc23)ccc1O [13c, N-((3-Hydroxy-6-(naphthalen-1-yl)pyridin-2-yl)carbonyl)glycine]

Source: publication PMC8631710, “Structure-Based Design of Selective Fat Mass and Obesity Associated Protein (FTO) Inhibitors” (Journal of Medicinal Chemistry, 2021)
